Test results: PubChem BioAssay AID248 (DTP/NCI, 2004)
Several values for one entry are separate records, joined by “and”; a condition that tells them apart may be missing. Identical values can stand only once. Toxic doses and inconclusive results are not listed.

Test system: L1210 leukemia ip in BDF1 mice, survival T/C
Test: NCI In Vivo Anticancer Drug Screen. Data for tumor model L1210 Leukemia (intraperitoneal) in B6D2F1 (BDF1) mice
Conditions: endpoint: mean survival time, higher = longer survival
Method in brief: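 Survival endpoint. Drug-treated group vs vehicle group, expressed as T divided by C. Tumor passaged by transplantation.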

[1] = dose: 50.0 mg/kg/injection, schedule: Q01DX001 (ip), vehicle: carboxymethylcellulose (CMC)
[2] = dose: 100.0 mg/kg/injection, schedule: Q01DX001 (ip), vehicle: carboxymethylcellulose (CMC)
[3] = dose: 200.0 mg/kg/injection, schedule: Q01DX001 (ip), vehicle: carboxymethylcellulose (CMC)
[4] = dose: 400.0 mg/kg/injection, schedule: Q01DX001 (ip), vehicle: carboxymethylcellulose (CMC)
[5] = dose: 50.0 mg/kg/injection, schedule: Q01DX001 (ip), vehicle: saline
[6] = dose: 100.0 mg/kg/injection, schedule: Q01DX001 (ip), vehicle: saline
[7] = dose: 200.0 mg/kg/injection, schedule: Q01DX001 (ip), vehicle: saline
[8] = dose: 400.0 mg/kg/injection, schedule: Q01DX001 (ip), vehicle: saline
[9] = dose: 100.0 mg/kg/injection, schedule: Q01DX009 (ip), vehicle: saline with Tween-80
[10] = dose: 100.0 mg/kg/injection, schedule: Q04DX003 (ip), vehicle: saline with Tween-80
[11] = dose: 200.0 mg/kg/injection, schedule: Q04DX003 (ip), vehicle: saline with Tween-80
[12] = dose: 400.0 mg/kg/injection, schedule: Q04DX003 (ip), vehicle: saline with Tween-80
[13] = dose: 200.0 mg/kg/injection, schedule: Q01DX009 (ip), vehicle: saline with Tween-80
[14] = dose: 100.0 mg/kg/injection, schedule: Q04DX003 (ip), vehicle: saline

Nc1cc(Br)cc2c1-c1ccc(Br)cc1C2
T/C [1]: 107 % of control | T/C [2]: 104 % of control | T/C [3]: 96 % of control | T/C [4]: 102 % of control

NC(=O)Nc1ccc2c(c1)Cc1cc([N+](=O)[O-])ccc1-2
T/C [2]: 100 % of control | T/C [3]: 105 % of control | T/C [4]: 91 % of control

O=c1/c(=C/c2ccccc2)c2cccc3cccc1c32
T/C (dose: 25.0 mg/kg/injection, schedule: Q01DX001 (ip), vehicle: saline with Tween-80): 97 % of control | T/C (dose: 50.0 mg/kg/injection, schedule: Q01DX001 (ip), vehicle: saline with Tween-80): 93 % of control | T/C (dose: 100.0 mg/kg/injection, schedule: Q01DX001 (ip), vehicle: saline with Tween-80): 97 % of control

CCCCCCCc1nc2c([nH]1)c(=O)n(C)c(=O)n2C
T/C [5]: 98 % of control | T/C [6]: 101 % of control | T/C [7]: 95 % of control | T/C [8]: 116 % of control

CCOC(CN1CCOCC1)c1ccccc1 (centres undefined)
T/C [1]: 100 % of control | T/C (dose: 50.0 mg/kg/injection, schedule: Q01DX009 (ip), vehicle: carboxymethylcellulose (CMC)): 93 % of control and 92 % of control | T/C (dose: 50.0 mg/kg/injection, schedule: Q04DX003 (ip), vehicle: carboxymethylcellulose (CMC)): 102 % of control | T/C [2]: 99 % of control | T/C (dose: 100.0 mg/kg/injection, schedule: Q01DX009 (ip), vehicle: carboxymethylcellulose (CMC)): 109 % of control and 91 % of control | T/C (dose: 100.0 mg/kg/injection, schedule: Q04DX002 (ip), vehicle: carboxymethylcellulose (CMC)): 103 % of control and 105 % of control | T/C (dose: 100.0 mg/kg/injection, schedule: Q04DX003 (ip), vehicle: carboxymethylcellulose (CMC)): 107 % of control | T/C [3]: 100 % of control | T/C (dose: 200.0 mg/kg/injection, schedule: Q01DX009 (ip), vehicle: carboxymethylcellulose (CMC)): 106 % of control and 88 % of control | T/C (dose: 200.0 mg/kg/injection, schedule: Q04DX002 (ip), vehicle: carboxymethylcellulose (CMC)): 106 % of control and 113 % of control | T/C (dose: 200.0 mg/kg/injection, schedule: Q04DX003 (ip), vehicle: carboxymethylcellulose (CMC)): 104 % of control

COC1/C=C/OC2(C)Oc3c(C)c(O)c4c(O)c(c(/C=N/N(C)c5ncnc6c5ncn6C5OC(CO)C(O)C5O)c(O)c4c3C2=O)NC(=O)C(C)=C/C=C/C(C)C(O)C(C)C(O)C(C)C(OC(C)=O)C1C (centres undefined)
T/C (dose: 200.0 mg/kg/injection, schedule: Q01DX009 (ip), vehicle: saline): 87 % of control | T/C (dose: 400.0 mg/kg/injection, schedule: Q01DX009 (ip), vehicle: saline): 94 % of control

COc1cccc(CNC(C)(CO)CO)c1OC
T/C [5]: 98 % of control | T/C [6]: 104 % of control | T/C [7]: 102 % of control

CCCCCCOc1ccc(CC(N)C(=O)O)cc1N(CCCl)CCCl (centres undefined)
T/C (dose: 2.5 mg/kg/injection, schedule: Q01DX009 (ip), vehicle: carboxymethylcellulose (CMC)): 119 % of control | T/C (dose: 4.4 mg/kg/injection, schedule: Q01DX001 (ip), vehicle: carboxymethylcellulose (CMC)): 109 % of control | T/C (dose: 6.6 mg/kg/injection, schedule: Q01DX001 (ip), vehicle: carboxymethylcellulose (CMC)): 115 % of control | T/C (dose: 8.5 mg/kg/injection, schedule: Q01DX001 (ip), vehicle: carboxymethylcellulose (CMC)): 117 % of control | T/C (dose: 10.0 mg/kg/injection, schedule: Q01DX001 (ip), vehicle: carboxymethylcellulose (CMC)): 110 % of control | T/C (dose: 13.0 mg/kg/injection, schedule: Q01DX001 (ip), vehicle: carboxymethylcellulose (CMC)): 117 % of control | T/C (dose: 15.0 mg/kg/injection, schedule: Q01DX001 (ip), vehicle: carboxymethylcellulose (CMC)): 116 % of control | T/C (dose: 15.0 mg/kg/injection, schedule: Q01DX009 (ip), vehicle: carboxymethylcellulose (CMC)): 152 % of control | T/C (dose: 20.0 mg/kg/injection, schedule: Q01DX001 (ip), vehicle: carboxymethylcellulose (CMC)): 122 % of control | T/C (dose: 22.5 mg/kg/injection, schedule: Q01DX009 (ip), vehicle: carboxymethylcellulose (CMC)): 113 % of control | T/C (dose: 30.0 mg/kg/injection, schedule: Q01DX001 (ip), vehicle: carboxymethylcellulose (CMC)): 122 % of control

Cc1cc(NC(=O)NCc2ccc([N+](=O)[O-])cc2Cl)ccc1S(=O)(=O)F
T/C (dose: 100.0 mg/kg/injection, schedule: Q04DX003 (ip), vehicle: Klucel (hydroxypropylcellulose) (HPC)): 98 % of control | T/C (dose: 200.0 mg/kg/injection, schedule: Q04DX003 (ip), vehicle: Klucel (hydroxypropylcellulose) (HPC)): 98 % of control | T/C (dose: 400.0 mg/kg/injection, schedule: Q04DX003 (ip), vehicle: Klucel (hydroxypropylcellulose) (HPC)): 106 % of control

C=CCNC(=O)Oc1cccc(NC(=O)/C=C/C)c1
T/C [9]: 88 % of control | T/C [10]: 97 % of control | T/C [11]: 95 % of control | T/C [12]: 92 % of control

Cc1ccnc(NS(=O)(=O)c2ccc(N=Nc3ccc(O)c4ncccc34)cc2)n1
T/C [6]: 108 % of control | T/C [7]: 100 % of control | T/C [8]: 97 % of control

CS(=O)(=O)CCN1C(=O)C2C3CCC(O3)C2C1=O (centres undefined)
T/C (dose: 100.0 mg/kg/injection, schedule: Q04DX002 (ip), vehicle: saline with Tween-80): 112 % of control | T/C (dose: 200.0 mg/kg/injection, schedule: Q04DX002 (ip), vehicle: saline with Tween-80): 108 % of control | T/C (dose: 400.0 mg/kg/injection, schedule: Q04DX002 (ip), vehicle: saline with Tween-80): 97 % of control

Cc1ccc(NC(=O)NCCCCCCNC(=O)Nc2ccc(C)c(Cl)c2)cc1Cl
T/C [10]: 93 % of control | T/C [13]: 89 % of control | T/C [11]: 92 % of control | T/C [12]: 95 % of control

NCNc1nc(NCN)nc(N(CN)CN)n1
T/C [10]: 92 % of control | T/C [11]: 88 % of control | T/C [12]: 88 % of control

[Cl][Pd]([Cl])([Cl])[Cl]
T/C (dose: 12.5 mg/kg/injection, schedule: Q04DX003 (ip), vehicle: saline): 95 % of control | T/C (dose: 25.0 mg/kg/injection, schedule: Q04DX003 (ip), vehicle: saline): 98 % of control | T/C (dose: 50.0 mg/kg/injection, schedule: Q04DX003 (ip), vehicle: saline): 102 % of control | T/C [14]: 90 % of control

COc1ccc(COC2C(CO)OC(n3cnc4c(N)ncnc43)C2O)cc1 (centres undefined)
T/C (dose: 100.0 mg/kg/injection, schedule: Q01DX005 (ip), vehicle: saline): 97 % of control | T/C (dose: 200.0 mg/kg/injection, schedule: Q01DX005 (ip), vehicle: saline): 100 % of control

Cc1cc(C(C)(C)C)cc(O)c1O
T/C (dose: 100.0 mg/kg/injection, schedule: Q01DX001 (ip), vehicle: other): 113 % of control | T/C (dose: 200.0 mg/kg/injection, schedule: Q01DX001 (ip), vehicle: other): 93 % of control | T/C (dose: 400.0 mg/kg/injection, schedule: Q01DX001 (ip), vehicle: other): 93 % of control

COc1cc([N+](=O)[O-])ccc1NC(=O)Oc1ccc(-c2ccccc2)cc1Cl
T/C (dose: 100.0 mg/kg/injection, schedule: Q01DX009 (ip), vehicle: Klucel (hydroxypropylcellulose) (HPC)): 93 % of control | T/C (dose: 200.0 mg/kg/injection, schedule: Q01DX009 (ip), vehicle: Klucel (hydroxypropylcellulose) (HPC)): 96 % of control | T/C (dose: 400.0 mg/kg/injection, schedule: Q01DX009 (ip), vehicle: Klucel (hydroxypropylcellulose) (HPC)): 95 % of control

Cc1ccc([N+](=O)[O-])cc1NC(=O)Nc1cccc(Cl)c1Cl
T/C (dose: 100.0 mg/kg/injection, schedule: Q04DX002 (ip), vehicle: Klucel (hydroxypropylcellulose) (HPC)): 86 % of control | T/C (dose: 200.0 mg/kg/injection, schedule: Q04DX002 (ip), vehicle: Klucel (hydroxypropylcellulose) (HPC)): 96 % of control | T/C (dose: 400.0 mg/kg/injection, schedule: Q04DX002 (ip), vehicle: Klucel (hydroxypropylcellulose) (HPC)): 90 % of control

Cc1nc2ncnc(Cl)c2[nH]1
T/C [6]: 103 % of control | T/C [7]: 106 % of control | T/C [8]: 100 % of control

C=CCCCCCCCCC(=O)NC[n+]1cccc(O)c1
T/C [10]: 87 % of control

CSc1ncc(Br)c(C(=O)O)n1
T/C [9]: 93 % of control | T/C [13]: 93 % of control | T/C (dose: 400.0 mg/kg/injection, schedule: Q01DX009 (ip), vehicle: saline with Tween-80): 94 % of control

O=[N+]([O-])c1ccccc1C1ON1C1CCCCC1 (centres undefined)
T/C [6]: 97 % of control | T/C [7]: 97 % of control | T/C [8]: 90 % of control

CC(C)N(C(=O)C1C2CCC(CC2)C1C(=O)N(C(C)C)C(C)C)C(C)C (centres undefined)
T/C [14]: 100 % of control | T/C (dose: 200.0 mg/kg/injection, schedule: Q04DX003 (ip), vehicle: saline): 100 % of control | T/C (dose: 400.0 mg/kg/injection, schedule: Q04DX003 (ip), vehicle: saline): 100 % of control
